Experiments:
[1] = test system: Bacillus subtilis NCTC 9372; experiment: Nitroreductase detection on Columbia agar, colonies read under UV; assay type: cell-based; set-up: key: − = no fluorescence detected; +/− = weak fluorescence; + = medium fluorescence; ++ = strong fluorescence; conditions: 100 mg/l in Columbia agar, 24 h 37° C., UV 360-365 nm
Procedure: (§1) A mass of 40 mg of each substrate was dissolved in 4 ml of dimethylformamide (DMF). This solution was entirely taken up in 400 ml of Columbia agar autoclaved beforehand and kept molten at 50° C. The final concentration for each substrate was 100 mg/l.
(§2) Each of the media was distributed into Petri dishes 90 mm in diameter, in a proportion of 20 ml per dish.
(§3) 18 microorganism strains derived from collections and belonging to various species of bacteria and of yeasts were inoculated onto these media by semi-quantitative isolation of 10 μl of a suspension at 0.5 McFarland diluted to 1/20. The media were incubated for 24 hours at 37° C., then the colonies formed were examined visually under UV illumination at 360-365 nm.

[2] = test system: Candida albicans ATCC 90028; experiment: as above; assay type: cell-based; set-up: key: − = no fluorescence detected; +/− = weak fluorescence; + = medium fluorescence; ++ = strong fluorescence; conditions: 100 mg/l in Columbia agar, 24 h 37° C., UV 360-365 nm
Procedure: as §1, §2, §3

[3] = test system: Citrobacter freundii 46262 (wild); experiment: as above; assay type: cell-based; set-up: key: − = no fluorescence detected; +/− = weak fluorescence; + = medium fluorescence; ++ = strong fluorescence; conditions: Table 4; 100 mg/l in Columbia agar, 24 h 37° C., UV 360-365 nm
Procedure: as §1, §2, §3

[4] = test system: Enterobacter cloacae NCTC 11936; experiment: as above; assay type: cell-based; set-up: key: − = no fluorescence detected; +/− = weak fluorescence; + = medium fluorescence; ++ = strong fluorescence; conditions: 100 mg/l in Columbia agar, 24 h 37° C., UV 360-365 nm
Procedure: as §1, §2, §3

[5] = test system: Enterococcus faecalis NCTC 775; experiment: as above; assay type: cell-based; set-up: key: − = no fluorescence detected; +/− = weak fluorescence; + = medium fluorescence; ++ = strong fluorescence; conditions: 100 mg/l in Columbia agar, 24 h 37° C., UV 360-365 nm
Procedure: as §1, §2, §3

[6] = test system: Enterococcus faecium NCTC 7171; experiment: as above; assay type: cell-based; set-up: key: − = no fluorescence detected; +/− = weak fluorescence; + = medium fluorescence; ++ = strong fluorescence; conditions: Table 4; 100 mg/l in Columbia agar, 24 h 37° C., UV 360-365 nm
Procedure: as §1, §2, §3

[7] = test system: Escherichia coli NCTC 10418; experiment: as above; assay type: cell-based; set-up: key: − = no fluorescence detected; +/− = weak fluorescence; + = medium fluorescence; ++ = strong fluorescence; conditions: 100 mg/l in Columbia agar, 24 h 37° C., UV 360-365 nm
Procedure: as §1, §2, §3

[8] = test system: Listeria monocytogenes NCTC 11994; experiment: as above; assay type: cell-based; set-up: key: − = no fluorescence detected; +/− = weak fluorescence; + = medium fluorescence; ++ = strong fluorescence; conditions: 100 mg/l in Columbia agar, 24 h 37° C., UV 360-365 nm
Procedure: as §1, §2, §3

[9] = test system: Providencia rettgeri NCTC 7475; experiment: as above; assay type: cell-based; set-up: key: − = no fluorescence detected; +/− = weak fluorescence; + = medium fluorescence; ++ = strong fluorescence; conditions: Table 4; 100 mg/l in Columbia agar, 24 h 37° C., UV 360-365 nm
Procedure: as §1, §2, §3

[10] = test system: Pseudomonas aeruginosa NCTC 10662; experiment: as above; assay type: cell-based; set-up: key: − = no fluorescence detected; +/− = weak fluorescence; + = medium fluorescence; ++ = strong fluorescence; conditions: 100 mg/l in Columbia agar, 24 h 37° C., UV 360-365 nm
Procedure: as §1, §2, §3

[11] = test system: Serratia marcescens NCTC 10211; experiment: as above; assay type: cell-based; set-up: key: − = no fluorescence detected; +/− = weak fluorescence; + = medium fluorescence; ++ = strong fluorescence; conditions: 100 mg/l in Columbia agar, 24 h 37° C., UV 360-365 nm
Procedure: as §1, §2, §3

[12] = test system: Staphylococcus aureus NCTC 6571; experiment: as above; assay type: cell-based; set-up: key: − = no fluorescence detected; +/− = weak fluorescence; + = medium fluorescence; ++ = strong fluorescence; conditions: 100 mg/l in Columbia agar, 24 h 37° C., UV 360-365 nm
Procedure: as §1, §2, §3

[13] = test system: Staphylococcus epidermidis NCTC 11047; experiment: as above; assay type: cell-based; set-up: key: − = no fluorescence detected; +/− = weak fluorescence; + = medium fluorescence; ++ = strong fluorescence; conditions: 100 mg/l in Columbia agar, 24 h 37° C., UV 360-365 nm
Procedure: as §1, §2, §3

[14] = test system: Streptococcus pyogenes NCTC 8306; experiment: as above; assay type: cell-based; set-up: key: − = no fluorescence detected; +/− = weak fluorescence; + = medium fluorescence; ++ = strong fluorescence; conditions: 100 mg/l in Columbia agar, 24 h 37° C., UV 360-365 nm
Procedure: as §1, §2, §3

[15] = test system: Yersinia enterocolitica NCTC 11176; experiment: as above; assay type: cell-based; set-up: key: − = no fluorescence detected; +/− = weak fluorescence; + = medium fluorescence; ++ = strong fluorescence; conditions: 100 mg/l in Columbia agar, 24 h 37° C., UV 360-365 nm
Procedure: as §1, §2, §3

[16] = test system: Acinetobacter baumanii ATCC 19606; experiment: as above; assay type: cell-based; set-up: key to Intensity of fluorescence, Acinetobacter baumanii ATCC 19606 / Intensity of the fluorescence, Acinetobacter baumanii ATCC 19606: − = no fluorescence detected; +/− = weak fluorescence; + = medium fluorescence; ++ = strong fluorescence
Procedure: as §1, §2, §3

[17] = test system: Salmonella typhimurium NCTC 74; experiment: as above; assay type: cell-based; set-up: key to Intensity of fluorescence, Salmonella typhimurium NCTC 74 / F: fluorescence (intensity), Salmonella typhimurium NCTC 74 / Intensity of the fluorescence, Salmonella typhimurium NCTC 74: − = no fluorescence detected; +/− = weak fluorescence; + = medium fluorescence; ++ = strong fluorescence
Procedure: as §1, §2, §3

[18] = test system: Morganella morganii 462403 (wild); experiment: as above; assay type: cell-based; set-up: key to Intensity of fluorescence, Morganella morganii 462403 / F: fluorescence (intensity), Morganella morganii 462403 (wild) / Intensity of the fluorescence, Morganella morganii 462403 (wild): − = no fluorescence detected; +/− = weak fluorescence; + = medium fluorescence; ++ = strong fluorescence; conditions: 100 mg/l in Columbia agar, 24 h 37° C., UV 360-365 nm
Procedure: as §1, §2, §3

[19] = test system: MRSA NCTC 11939; experiment: as above; assay type: cell-based, Staphylococcus aureus; set-up: key: − = no fluorescence detected; +/− = weak fluorescence; + = medium fluorescence; ++ = strong fluorescence; conditions: 100 mg/l in Columbia agar, 24 h 37° C., UV 360-365 nm
Procedure: as §1, §2, §3

[20] = test system: Candida glabrata NCPF 3943; experiment: as above; assay type: cell-based; set-up: key to Intensity of fluorescence, Candida glabrata NCPF3943 / F: fluorescence (intensity), Candida glabrata NCPF 3943 / Intensity of the fluorescence, Candida glabrata NCPF 3943: − = no fluorescence detected; +/− = weak fluorescence; + = medium fluorescence; ++ = strong fluorescence; conditions: 100 mg/l in Columbia agar, 24 h 37° C., UV 360-365 nm
Procedure: as §1, §2, §3

[21] = test system: S. aureus (including MRSA) 10 strains; experiment: Detection of various strains of S. aureus in the presence of substrates; assay type: cell-based, Staphylococcus aureus; conditions: for No. of strains detected, S. aureus (including MRSA): 10 strains
[22] = test system: S. epidermidis 2 strains; experiment: as above; assay type: cell-based
Procedure: as §1, §2
18 microorganism strains derived from collections and belonging to various species of bacteria and of yeasts were inoculated onto these media by semi-quantitative isolation of 10 μl of a suspension at 0.5 McFarland diluted to 1/20. […]

[23] = test system: Staph spp 12 strains; experiment: as above; assay type: cell-based
[24] = test system: Enterococcus 6 strains; experiment: as above; assay type: cell-based
[25] = 100 mg/l in Columbia agar, 24 h 37° C., UV 360-365 nm
[26] = Table 4, 100 mg/l in Columbia agar, 24 h 37° C., UV 360-365 nm

O=[N+]([O-])c1ccc(F)cc1-c1nc2ccccc2s1 [Substrate 15]
Intensity of fluorescence, Bacillus subtilis NCTC 9372 [1]: −
Intensity of the fluorescence, Bacillus subtilis NCTC 9372 ([1]; Table 4): −
Intensity of fluorescence, Candida albicans ATCC 90028 [2]: −
Intensity of the fluorescence, Candida albicans ATCC 90028 ([2]; Table 4): −
Intensity of the fluorescence, Citrobacter freundii 46262 (wild) [3]: ++
Intensity of fluorescence, Enterobacter cloacae NCTC 11936 [4]: ++
Intensity of the fluorescence, Enterobacter cloacae NCTC 11936 ([4]; Table 4): ++
Intensity of fluorescence, Enterococcus faecalis NCTC 775 [5]: −
Intensity of the fluorescence, Enterococcus faecails NCTC 775 ([5]; Table 4): −
Intensity of the fluorescence, Enterococcus faecium NCTC 7171 [6]: −
Intensity of fluorescence, Escherichia coli NCTC 10418 [7]: ++
Intensity of the fluorescence, Escherichia coli NCTC 10418 ([7]; Table 4): ++
Intensity of fluorescence, Listeria monocytogenes NCTC 11994 [8]: −
Intensity of the fluorescence, Listeria monocytogenes NCTC 11994 ([8]; Table 4): −
Intensity of the fluorescence, Providencia rettgeri NCTC 7475 [9]: ++
Intensity of fluorescence, Pseudomonas aeruginosa NCTC 10662 [10]: −
Intensity of the fluorescence, Pseudomonas aeruginosa NCTC 10662 ([10]; Table 4): +
Intensity of fluorescence, Serratia marcescens NCTC 10211 [11]: ++
Intensity of the fluorescence, Serratia marcescens NCTC 10211 ([11]; Table 4): ++
Intensity of fluorescence, Staphylococcus aureus NCTC 6571 [12]: ++
Intensity of the fluorescence, Staphylococcus aureus NCTC 6571 ([12]; Table 4): ++
Intensity of fluorescence, Staphylococcus epidermidis NCTC 11047 [13]: −
Intensity of the fluorescence, Staphylococcus epidermidis NCTC 11047 ([13]; Table 4): −
Intensity of fluorescence, Streptococcus pyogenes NCTC 8306 [14]: −
Intensity of the fluorescence, Streptococcus pyogenes NCTC 8306 ([14]; Table 4): −
Intensity of fluorescence, Yersinia enterocolitica NCTC 11176 [15]: −
Intensity of the fluorescence, Yersinia enterocolitica NCTC 11176 ([15]; Table 4): −
Intensity of fluorescence, Acinetobacter baumanii ATCC 19606 [16, 25]: +
Intensity of the fluorescence, Acinetobacter baumanii ATCC 19606 [16, 26]: +
Distinguishing Pseudomonas aeruginosa from Acinetobacter baumanii ([16]; table 2): make it possible to distinguish Pseudomonas aeruginosa from Acinetobacter baumanii
Intensity of fluorescence, Salmonella typhimurium NCTC 74 [17, 25]: ++
Intensity of the fluorescence, Salmonella typhimurium NCTC 74 [17, 26]: ++
Salmonella typhimurium result with the substrate ([17]; table 2): strongly positive
Intensity of fluorescence, Morganella morganii 462403 [18]: ++
Intensity of the fluorescence, Morganella morganii 462403 (wild) ([18]; Table 4): ++
Intensity of fluorescence, Staphylococcus aureus NCTC 11939 [19]: ++
Intensity of the fluorescence, MRSA NCTC 11939 ([19]; Table 4): ++
Intensity of fluorescence, Candida glabrata NCPF3943 [20]: −
Intensity of the fluorescence, Candida glabrata NCPF 3943 ([20]; Table 4): −
Distinguishing or identifying Staphylococcus aureus strains, in particular MRSA, from most of the other Gram-positive bacterial strains [21]: make it possible to distinguish or identify the Staphylococcus aureus strains
No. of strains detected, S. aureus (including MRSA) ([21]; 24 h): 10
No. of strains detected, S. aureus (including MRSA) ([21]; 48 h): 10
No. of strains detected, S. epidermidis ([22]; 24 h): 0
No. of strains detected, S. epidermidis ([22]; 48 h): 2
No. of strains detected, Staph spp ([23]; 24 h): 12
No. of strains detected, Staph spp ([23]; 48 h): 12
No. of strains detected, Enterococcus ([24]; 24 h): 0
No. of strains detected, Enterococcus ([24]; 48 h): 1

Source: patent US8211662B2, “Nitroreductase enzymatic substrates” (Biomerieux, priority 2007, dated 2012)
